From ChEMBL document CHEMBL5523762, “Discovery of Potent and Selective G9a Degraders for the Treatment of Pancreatic Cancer” (J Med Chem, 2024)
Activity calls are given as the source filed them. The calls are words filed in the database; no cut-off is given here.

Columns and labels:
[1] = biological target: T1, Protein cereblon/Histone-lysine N-methyltransferase EHMT2 (Homo sapiens, UniProt Q96KQ7+Q96SW2); experiment: PROTAC activity at CRBN/G9a in human PANC-1 cells assessed as induction of G9a degradation at 1 uM pretreated with MLN4924 for 2 hrs followed by compound addition and measured after 8 hrs by Western blot analysis; assay type: cell-based
Target sequence in this assay (Q96KQ7 2-1210 limits assumed): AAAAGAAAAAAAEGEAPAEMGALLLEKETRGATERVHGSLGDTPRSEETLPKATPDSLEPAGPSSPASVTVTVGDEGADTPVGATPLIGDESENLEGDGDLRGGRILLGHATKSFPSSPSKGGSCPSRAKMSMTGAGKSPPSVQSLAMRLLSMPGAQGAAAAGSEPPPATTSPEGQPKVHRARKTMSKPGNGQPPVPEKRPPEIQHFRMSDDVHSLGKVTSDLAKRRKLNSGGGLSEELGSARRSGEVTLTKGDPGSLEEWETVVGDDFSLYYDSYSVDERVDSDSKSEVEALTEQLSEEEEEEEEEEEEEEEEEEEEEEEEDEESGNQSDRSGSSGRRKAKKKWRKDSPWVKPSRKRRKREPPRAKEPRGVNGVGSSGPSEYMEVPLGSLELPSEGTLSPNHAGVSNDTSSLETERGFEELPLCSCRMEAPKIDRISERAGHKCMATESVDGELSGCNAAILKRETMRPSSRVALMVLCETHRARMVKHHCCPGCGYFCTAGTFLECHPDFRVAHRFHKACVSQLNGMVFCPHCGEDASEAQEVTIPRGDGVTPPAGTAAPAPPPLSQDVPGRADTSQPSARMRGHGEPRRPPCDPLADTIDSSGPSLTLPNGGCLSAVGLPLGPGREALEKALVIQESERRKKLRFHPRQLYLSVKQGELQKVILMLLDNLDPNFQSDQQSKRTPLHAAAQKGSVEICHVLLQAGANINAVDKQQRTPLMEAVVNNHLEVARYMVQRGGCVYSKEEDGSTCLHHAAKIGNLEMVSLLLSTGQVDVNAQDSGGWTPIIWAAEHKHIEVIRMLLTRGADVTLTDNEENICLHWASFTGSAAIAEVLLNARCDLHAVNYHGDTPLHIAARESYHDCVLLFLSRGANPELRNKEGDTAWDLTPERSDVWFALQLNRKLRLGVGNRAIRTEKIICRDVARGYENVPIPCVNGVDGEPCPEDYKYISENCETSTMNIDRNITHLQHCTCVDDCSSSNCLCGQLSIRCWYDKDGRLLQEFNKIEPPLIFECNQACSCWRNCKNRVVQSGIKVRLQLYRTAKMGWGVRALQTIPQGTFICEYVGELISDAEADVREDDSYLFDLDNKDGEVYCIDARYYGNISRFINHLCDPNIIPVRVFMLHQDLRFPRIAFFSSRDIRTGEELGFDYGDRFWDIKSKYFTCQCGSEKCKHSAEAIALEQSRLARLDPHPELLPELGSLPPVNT
Target sequence in this assay (Q96SW2 whole entry partner): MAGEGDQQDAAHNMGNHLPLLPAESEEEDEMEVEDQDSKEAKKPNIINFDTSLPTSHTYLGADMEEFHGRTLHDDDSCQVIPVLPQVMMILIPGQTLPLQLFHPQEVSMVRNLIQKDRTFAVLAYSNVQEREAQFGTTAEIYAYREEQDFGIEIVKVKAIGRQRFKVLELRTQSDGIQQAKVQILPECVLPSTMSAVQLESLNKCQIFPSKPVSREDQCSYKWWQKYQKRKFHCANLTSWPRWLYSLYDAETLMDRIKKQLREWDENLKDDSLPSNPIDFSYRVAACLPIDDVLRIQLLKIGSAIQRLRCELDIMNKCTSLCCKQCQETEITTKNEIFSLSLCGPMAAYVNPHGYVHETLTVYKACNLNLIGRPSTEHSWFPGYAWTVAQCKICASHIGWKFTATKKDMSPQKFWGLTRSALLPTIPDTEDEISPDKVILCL

[2] = system: KP-4; experiment: Induction of apoptosis in human KP-4 cells at 10 uM incubated for 24 hrs in presence of 5 uM MRTX1133 by Annexin V-FITC/PI staining based flow cytometry analysis; assay type: functional, cell-based
[3] = Volume of distribution at steady state in male ICR mouse at 5 mg/kg, iv measured upto 24 hrs by LC-MS/MS analysis; assay type: ADME, organism-based; details: in vivo, read-out: Vdss
[4] = Half life in male ICR mouse at 5 mg/kg, iv measured upto 24 hrs by LC-MS/MS analysis; assay type: ADME, organism-based; details: in vivo
[5] = system: PANC-1; experiment: Effect on G9a mRNA expression at transcriptional level in human PANC-1 cells at 0.1 to 10 uM by RT-qPCR analysis; assay type: functional, cell-based; details: dose 0.1-10 µM
[6] = system: Panc1005; experiment: Antiproliferative activity against human Panc1005 cells assessed as inhibition of cell growth measured after 72 hrs by SRB assay; assay type: functional, cell-based
[7] = system: Panc 02.03; experiment: Synergistic antiproliferative activity against human Panc 02.03 cells assessed as combination index for ED90 upto 20 uM incubated for 72 hrs in presence of MRTX1133; assay type: functional
[8] = biological target: T1, Protein cereblon/Histone-lysine N-methyltransferase EHMT2; experiment: PROTAC activity at CRBN/G9a in human PANC-1 cells assessed as induction of G9a degradation at 1 uM in presence of 50 uM cycloheximide measured after 4 hrs by Western blot analysis; assay type: cell-based
Target sequence in this assay (Q96KQ7 2-1210 limits assumed): as the sequence (Q96KQ7 2-1210 limits assumed) above
Target sequence in this assay (Q96SW2 whole entry partner): as the sequence (Q96SW2 whole entry partner) above

[9] = system: KP-4; experiment: Synergistic antiproliferative activity against human KP-4 cells assessed as combination index upto 20 uM incubated for 72 hrs in presence of MRTX1133; assay type: functional
[10] = Cmax in male ICR mouse at 20 mg/kg, ip measured upto 24 hrs by LC-MS/MS analysis; assay type: ADME, organism-based; details: in vivo
[11] = AUC (0 to t) in male ICR mouse at 20 mg/kg, ip measured upto 24 hrs by LC-MS/MS analysis; assay type: ADME, organism-based; details: in vivo
[12] = system: Panc1005; experiment: Synergistic antiproliferative activity against human Panc1005 cells assessed as combination index for ED90 upto 20 uM incubated for 72 hrs in presence of MRTX1133; assay type: functional
[13] = system: KP-4; experiment: Synergistic antiproliferative activity against human KP-4 cells at 0 to 10 uM incubated for 72 hrs in presence of MRTX1133 by SRB assay; assay type: functional, cell-based; details: dose 0-10 µM
[14] = system: PANC-1; experiment: Effect on CK1alpha level in human PANC-1 cells at 0.008 to 10 uM measured after 8 hrs by western blot analysis; assay type: functional, cell-based; details: dose 0.008-10 µM
[15] = Half life in male ICR mouse at 20 mg/kg, ip measured upto 24 hrs by LC-MS/MS analysis; assay type: ADME, organism-based; details: in vivo
[16] = system: PANC-1; experiment: Effect on GSPT1 level in human PANC-1 cells at 0.008 to 10 uM measured after 8 hrs by western blot analysis; assay type: functional, cell-based; details: dose 0.008-10 µM
[17] = system: PANC-1; experiment: Effect on H3K27me2 level in human PANC-1 cells at 0.04 to 10 uM measured after 24 hrs by Western blot analysis; assay type: functional, cell-based; details: dose 0.04-10 µM
[18] = system: CWR22R; experiment: Antiproliferative activity against human 22Rv1 cells assessed as inhibition of cell growth measured after 7 days by SRB assay; assay type: functional, cell-based; details: 22Rv1, 168 h
[19] = system: PANC-08-13; experiment: Antiproliferative activity against human PANC-08-13 cells assessed as inhibition of cell growth measured after 72 hrs by SRB assay; assay type: functional, cell-based
[20] = biological target: T1, Protein cereblon/Histone-lysine N-methyltransferase EHMT2; experiment: PROTAC activity at CRBN/G9a in human PANC-1 cells assessed as induction of G9a degradation at 1 uM pretreated with MG132 for 2 hrs followed by compound addition and measured after 8 hrs by Western blot analysis; assay type: cell-based
Target sequence in this assay (Q96KQ7 2-1210 limits assumed): as the sequence (Q96KQ7 2-1210 limits assumed) above
Target sequence in this assay (Q96SW2 whole entry partner): as the sequence (Q96SW2 whole entry partner) above

[21] = biological target: T1, Protein cereblon/Histone-lysine N-methyltransferase EHMT2; experiment: PROTAC activity at CRBN/G9a in human ASPC1 cells assessed as induction of G9a degradation measured after 8 hrs by Western blot analysis; assay type: cell-based
Target sequence in this assay (Q96KQ7 whole entry): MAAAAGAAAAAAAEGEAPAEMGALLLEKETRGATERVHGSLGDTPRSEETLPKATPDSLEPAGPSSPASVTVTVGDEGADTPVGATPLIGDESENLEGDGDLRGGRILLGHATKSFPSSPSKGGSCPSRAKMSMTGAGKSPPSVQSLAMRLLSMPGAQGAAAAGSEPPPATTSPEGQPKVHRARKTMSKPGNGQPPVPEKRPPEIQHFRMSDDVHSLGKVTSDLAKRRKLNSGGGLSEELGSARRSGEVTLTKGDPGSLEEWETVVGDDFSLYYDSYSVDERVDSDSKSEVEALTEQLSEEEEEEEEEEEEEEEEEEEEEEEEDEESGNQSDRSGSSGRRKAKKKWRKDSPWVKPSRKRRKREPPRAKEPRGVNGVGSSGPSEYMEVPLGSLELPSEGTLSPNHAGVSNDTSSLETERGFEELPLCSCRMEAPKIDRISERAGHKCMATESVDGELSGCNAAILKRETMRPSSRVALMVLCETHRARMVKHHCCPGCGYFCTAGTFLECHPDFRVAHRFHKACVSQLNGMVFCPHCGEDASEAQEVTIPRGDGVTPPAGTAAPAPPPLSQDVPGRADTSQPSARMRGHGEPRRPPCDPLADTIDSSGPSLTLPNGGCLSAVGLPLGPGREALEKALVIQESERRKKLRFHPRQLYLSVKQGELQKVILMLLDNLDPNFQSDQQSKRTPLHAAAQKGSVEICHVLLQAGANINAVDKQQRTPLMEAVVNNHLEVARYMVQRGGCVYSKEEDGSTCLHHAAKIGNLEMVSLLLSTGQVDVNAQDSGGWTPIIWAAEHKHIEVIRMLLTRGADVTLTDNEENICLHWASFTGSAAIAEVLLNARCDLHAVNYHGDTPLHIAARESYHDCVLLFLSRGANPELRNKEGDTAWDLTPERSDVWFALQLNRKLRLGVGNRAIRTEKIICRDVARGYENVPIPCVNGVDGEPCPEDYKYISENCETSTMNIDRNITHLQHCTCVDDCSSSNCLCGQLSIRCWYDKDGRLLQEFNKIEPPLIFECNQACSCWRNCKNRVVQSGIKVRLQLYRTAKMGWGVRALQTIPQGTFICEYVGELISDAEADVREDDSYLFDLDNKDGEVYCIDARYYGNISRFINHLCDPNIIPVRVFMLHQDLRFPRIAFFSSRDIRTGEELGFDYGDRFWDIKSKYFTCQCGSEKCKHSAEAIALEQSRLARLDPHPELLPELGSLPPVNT
Target sequence in this assay (Q96SW2 whole entry): as the sequence (Q96SW2 whole entry partner) above

[22] = biological target: T1, Protein cereblon/Histone-lysine N-methyltransferase EHMT2; experiment: PROTAC activity at CRBN/G9a in human PANC-1 cells assessed as induction of G9a degradation at 0.1 uM measured after 24 hrs by Western blot analysis; assay type: cell-based
Target sequence in this assay (Q96KQ7 2-1210 limits assumed): as the sequence (Q96KQ7 2-1210 limits assumed) above
Target sequence in this assay (Q96SW2 whole entry partner): as the sequence (Q96SW2 whole entry partner) above

[23] = biological target: Protein cereblon/Histone-lysine N-methyltransferase EHMT1 (Homo sapiens) (UniProt Q9H9B1+Q96SW2); experiment: PROTAC activity at CRBN/GLP in human PANC-1 cells assessed as downregulation of GLP protein level at 1 uM in presence of 50 uM cycloheximide measured after 0 to 16 hrs by […]; assay type: cell-based; details: time 0-16 hrs
Sequence of Protein cereblon/Histone-lysine N-methyltransferase EHMT1 (Homo sapiens) (Q96SW2 whole entry, looked up): as the sequence (Q96SW2 whole entry partner) above
Sequence of Protein cereblon/Histone-lysine N-methyltransferase EHMT1 (Homo sapiens) (Q9H9B1 whole entry, looked up): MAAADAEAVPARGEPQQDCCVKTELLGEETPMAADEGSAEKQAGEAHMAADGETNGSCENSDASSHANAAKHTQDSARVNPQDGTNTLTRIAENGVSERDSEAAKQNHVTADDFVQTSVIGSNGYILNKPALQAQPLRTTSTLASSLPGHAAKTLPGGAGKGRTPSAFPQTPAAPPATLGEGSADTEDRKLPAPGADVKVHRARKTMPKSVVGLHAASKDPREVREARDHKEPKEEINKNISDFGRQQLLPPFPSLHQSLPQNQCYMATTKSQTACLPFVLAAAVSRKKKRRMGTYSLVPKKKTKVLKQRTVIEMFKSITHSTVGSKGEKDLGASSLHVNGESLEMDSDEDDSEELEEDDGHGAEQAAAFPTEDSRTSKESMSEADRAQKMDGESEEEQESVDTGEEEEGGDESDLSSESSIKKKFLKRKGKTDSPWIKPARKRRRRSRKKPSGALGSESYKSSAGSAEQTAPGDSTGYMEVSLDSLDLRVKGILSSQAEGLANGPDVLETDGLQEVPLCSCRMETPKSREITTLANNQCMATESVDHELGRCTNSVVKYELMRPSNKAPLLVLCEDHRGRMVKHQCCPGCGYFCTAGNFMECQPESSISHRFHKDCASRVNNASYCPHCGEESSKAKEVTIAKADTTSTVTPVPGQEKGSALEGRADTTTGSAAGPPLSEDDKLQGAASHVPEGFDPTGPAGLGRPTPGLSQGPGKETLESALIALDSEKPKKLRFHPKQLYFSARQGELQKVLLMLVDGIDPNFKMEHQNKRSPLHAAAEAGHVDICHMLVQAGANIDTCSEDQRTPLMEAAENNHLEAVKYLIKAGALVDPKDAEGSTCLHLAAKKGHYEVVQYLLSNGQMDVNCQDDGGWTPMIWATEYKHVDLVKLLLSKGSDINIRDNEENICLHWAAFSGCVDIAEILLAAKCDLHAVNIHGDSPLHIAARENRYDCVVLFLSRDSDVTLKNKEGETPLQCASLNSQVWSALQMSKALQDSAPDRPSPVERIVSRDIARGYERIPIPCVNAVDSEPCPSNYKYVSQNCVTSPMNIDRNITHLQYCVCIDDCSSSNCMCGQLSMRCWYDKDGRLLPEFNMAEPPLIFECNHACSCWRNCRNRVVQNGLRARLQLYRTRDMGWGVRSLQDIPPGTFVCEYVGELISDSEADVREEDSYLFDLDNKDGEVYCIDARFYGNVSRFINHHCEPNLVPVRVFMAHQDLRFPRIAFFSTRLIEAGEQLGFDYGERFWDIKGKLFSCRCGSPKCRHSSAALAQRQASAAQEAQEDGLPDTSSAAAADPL

[24] = system: PANC-1; experiment: Effect on H3K23me3 level in human PANC-1 cells at 0.04 to 10 uM measured after 24 hrs by Western blot analysis; assay type: functional, cell-based; details: dose 0.04-10 µM
[25] = AUC (0 to t) in male ICR mouse at 5 mg/kg, iv measured upto 24 hrs by LC-MS/MS analysis; assay type: ADME, organism-based; details: in vivo
[26] = system: PANC-1; experiment: Downregulation of H3K9me2 level in human PANC-1 cells measured after 24 hrs by Western blot analysis; assay type: functional, cell-based; details: dose 0.04-10 µM
[27] = system: PANC-1; experiment: Effect on cell cycle arrest in human PANC-1 cells at 5 to 10 uM measured after 24 hrs by RNaseA/PI staining based flow cytometry analysis; assay type: functional; details: dose 5-10 µM
[28] = system: ASPC1; experiment: Antiproliferative activity against human ASPC1 cells assessed as inhibition of cell growth measured after 72 hrs by SRB assay; assay type: functional, cell-based
[29] = system: PANC-1; experiment: Effect on GLP mRNA expression at transcriptional level in human PANC-1 cells at 0.1 to 10 uM by RT-qPCR analysis; assay type: functional, cell-based; details: dose 0.1-10 µM
[30] = system: PANC-1; experiment: Induction of apoptosis in human PANC-1 cells at 10 uM by Annexin V-FITC/PI staining based flow cytometry analysis; assay type: functional, cell-based; details: time 12-72 hrs, TDE = time-dependent effect
[31] = system: Panc 02.03; experiment: Antiproliferative activity against human Panc 02.03 cells assessed as inhibition of cell growth measured after 72 hrs by SRB assay; assay type: functional, cell-based
[32] = system: PANC-1; experiment: Induction of apoptosis in human PANC-1 cells measured after 24 hrs by Annexin V-FITC/PI staining based flow cytometry analysis; assay type: functional, cell-based; details: dose 5-12.5 µM
[33] = system: PANC-1; experiment: Effect on H3K27me3 level in human PANC-1 cells at 0.04 to 10 uM measured after 24 hrs by Western blot analysis; assay type: functional, cell-based; details: dose 0.04-10 µM
[34] = system: PANC-1; experiment: Effect on H3K4me3 level in human PANC-1 cells at 0.04 to 10 uM measured after 24 hrs by Western blot analysis; assay type: functional, cell-based; details: dose 0.04-10 µM
[35] = system: HPAF-II; experiment: Synergistic antiproliferative activity against human HPAF-II cells assessed as combination index for ED90 upto 20 uM incubated for 72 hrs in presence of MRTX1133; assay type: functional
[36] = system: PANC-08-13; experiment: Synergistic antiproliferative activity against human PANC-08-13 cells assessed as combination index upto 20 uM incubated for 72 hrs in presence of MRTX1133; assay type: functional
[37] = system: PANC-1; experiment: Antiproliferative activity against human PANC-1 cells assessed as inhibition of cell growth measured after 72 hrs by SRB assay; assay type: functional, cell-based
[38] = system: HPAF-II; experiment: Antiproliferative activity against human HPAF-II cells assessed as inhibition of cell growth measured after 72 hrs by SRB assay; assay type: functional, cell-based

Activity [1]: inactive | Vd [3]: 2.61 L/kg | half-life [4]: 5.3 h | Activity [8]: Active | Cmax [10]: 2670 ng/mL | AUC(0-t) at 24 h [11]: 6150 ng·h/mL | half-life [15]: 4.2 h | Activity [20]: inactive | DC50 [21]: 0.2 µM | Activity [22]: Active | Activity [23]: inactive | AUC(0-t) at 24 h [25]: 3780 ng·h/mL
SMILES: COc1cc2c(NC3CCN(CCCC(=O)NCCCCCCCCNc4cccc5c4C(=O)N(C4CCC(=O)NC4=O)C5=O)CC3)nc(C3CCCCC3)nc2cc1OCCCN1CCCC1 (stereo not drawn)
Activity [2]: Active | Activity [5]: inactive | Activity [6]: Active | CI [7]: <0.4 | CI [9]: <0.8 | CI [12]: <0.4 | Activity [13]: Active | Activity [14]: inactive | Activity [16]: inactive | Activity [17]: inactive | IC50 [18]: 9.9 µM | Activity [19]: Active | Activity [24]: inactive | Activity [26]: Active | Activity [27]: Active | Activity [28]: Active | Activity [29]: inactive | Activity [30]: Tde | Activity [31]: Active | Activity [32]: Dose-Dependent Effect | Activity [33]: inactive | Activity [34]: inactive | CI [35]: <0.4 | CI [36]: <0.8 | Activity [37]: Active | Activity [38]: Active
